{"source": "paper PMC8121435", "about": "“Cork-in-bottle mechanism of inhibitor binding to mammalian complex I” (Science Advances, 2021)", "format_in_all_cases": "biochemical", "key": {"complex I": {"tested_on": "complex I", "assay": "NADH:ubiquinone-1 oxidoreduction in the presence of inhibitor", "settings": "200 μM ubiquinone-1", "procedure": "(§1) All catalytic activity assays were conducted at 32°C in 96-well plates using a Molecular Devices Spectramax 384 plus plate reader. Catalysis was initiated by addition of 200 μM NADH and monitored at 340 and 380 nm (ε340–380 = 4.81 mM^−1 cm^−1). Linear rates were measured for all assays, inhibitors were added from dimethyl sulfoxide stock solutions as required, and inhibitor-insensitive rates (using either 1 μM piericidin A or 1.4 μM IACS-2858) were subtracted from each measured rate. Membrane samples were prepared as described previously ([17], [20], [59], [60]), diluted to 20 μg ml^−1 in 10 mM tris-SO4 (pH 7.5) and 250 mM sucrose, and supplemented with 3 μM horse heart cytochrome c (except for P. denitrificans, for which the activity is unaffected by the addition). Mouse, bovine, and yeast (Y. lipolytica) complex I were purified as described previously ([17], [20], [59]); diluted to 0.5 nM in 20 mM tris-HCl (pH 7.5), 0.15% asolectin, and 0.15% CHAPS; and assayed using either 200 μM dQ or 200 μM ubiquinone-1 (Sigma-Aldrich). Complex I was purified from P. denitrificans strain Pd1222 ([61]) and provided by O. D. Jarman (MRC Mitochondrial Biology Unit, University of Cambridge); it was assayed likewise but in 10 mM MES-HCl (pH 6.5), 25 mM NaCl, and 2 mM CaCl2. […]"}, "mouse complex I": {"target": "T1, mouse complex I (Mus musculus, UniProt P03888+Q91WD5+Q9DC70)", "T1 construct": "from tissue; host or cells: mouse (C57BL/6) heart mitochondria", "assay": "NADH:decylubiquinone oxidoreduction by purified mouse complex I", "settings": "purified mouse complex I ~0.5 nM, 200 μM dQ, 200 μM NADH, 32°C; Hill slope constrained to −1; ± SE", "procedure": "(§2) All catalytic activity assays were conducted at 32°C in 96-well plates using a Molecular Devices Spectramax 384 plus plate reader. Catalysis was initiated by addition of 200 μM NADH and monitored at 340 and 380 nm (ε340–380 = 4.81 mM^−1 cm^−1). Linear rates were measured for all assays, inhibitors were added from dimethyl sulfoxide stock solutions as required, and inhibitor-insensitive rates (using either 1 μM piericidin A or 1.4 μM IACS-2858) were subtracted from each measured rate. Membrane samples were prepared as described previously ([17], [20], [59], [60]), diluted to 20 μg ml^−1 in 10 mM tris-SO4 (pH 7.5) and 250 mM sucrose, and supplemented with 3 μM horse heart cytochrome c (except for P. denitrificans, for which the activity is unaffected by the addition). Mouse, bovine, and yeast (Y. lipolytica) complex I were purified as described previously ([17], [20], [59]); diluted to 0.5 nM in 20 mM tris-HCl (pH 7.5), 0.15% asolectin, and 0.15% CHAPS; and assayed using either 200 μM dQ or 200 μM ubiquinone-1 (Sigma-Aldrich). Complex I was purified from P. denitrificans strain Pd1222 ([61]) and provided by O. D. Jarman (MRC Mitochondrial Biology Unit, University of Cambridge); it was assayed likewise but in 10 mM MES-HCl (pH 6.5), 25 mM NaCl, and 2 mM CaCl2. Bovine SMPs were prepared as described previously ([61]) and diluted to 20 μg ml^−1 in 10 mM tris-SO4 (pH 7.5) and 250 mM sucrose for FET and RET assays. The RET assay was initiated using 1 mM NAD^+, 1 mM ATP, 10 mM succinate, 1 mM cyanide, and 2 mM MgSO4, in the absence of NADH. AOX from Trypanosoma brucei brucei was prepared as described previously ([23]). Complex I proteoliposomes were assayed using 10 mM Mops-KOH (pH 7.5), 50 mM KCl, and AOX (10 μg ml^−1)."}, "[1]": {"target": "T2, yeast (Y. lipolytica) complex I (Yarrowia lipolytica, UniProt Q9B6E8+Q9UUT7+Q9UUU1)", "T2 sequence (Q9B6E8 1-341)": "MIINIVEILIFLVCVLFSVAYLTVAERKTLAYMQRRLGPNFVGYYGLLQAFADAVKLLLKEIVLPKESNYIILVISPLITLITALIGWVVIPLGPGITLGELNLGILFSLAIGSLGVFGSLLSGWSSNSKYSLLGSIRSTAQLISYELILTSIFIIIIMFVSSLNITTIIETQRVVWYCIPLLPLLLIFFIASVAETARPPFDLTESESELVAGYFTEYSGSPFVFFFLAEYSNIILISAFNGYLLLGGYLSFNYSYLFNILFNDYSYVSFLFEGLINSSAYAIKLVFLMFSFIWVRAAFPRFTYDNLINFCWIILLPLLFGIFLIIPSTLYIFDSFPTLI", "T2 sequence (Q9UUU1 22-466)": "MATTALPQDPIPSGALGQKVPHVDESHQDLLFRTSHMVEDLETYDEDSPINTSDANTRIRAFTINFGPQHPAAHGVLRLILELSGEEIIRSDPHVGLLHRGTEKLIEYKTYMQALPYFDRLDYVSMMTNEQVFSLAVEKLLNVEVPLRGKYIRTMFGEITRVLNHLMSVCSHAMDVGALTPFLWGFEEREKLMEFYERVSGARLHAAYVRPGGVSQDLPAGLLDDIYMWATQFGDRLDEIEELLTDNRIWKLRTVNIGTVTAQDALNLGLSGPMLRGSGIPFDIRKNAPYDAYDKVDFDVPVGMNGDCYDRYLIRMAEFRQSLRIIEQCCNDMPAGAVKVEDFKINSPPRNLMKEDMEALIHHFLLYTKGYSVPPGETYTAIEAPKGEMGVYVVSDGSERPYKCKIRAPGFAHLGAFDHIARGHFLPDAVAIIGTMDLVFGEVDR", "T2 sequence (Q9UUT7 28-210)": "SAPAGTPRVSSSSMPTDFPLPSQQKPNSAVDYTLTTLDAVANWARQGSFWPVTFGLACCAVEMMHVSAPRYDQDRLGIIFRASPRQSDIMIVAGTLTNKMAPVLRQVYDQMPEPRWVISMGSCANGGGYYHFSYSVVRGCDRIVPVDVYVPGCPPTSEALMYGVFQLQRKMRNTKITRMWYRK", "assay": "NADH:decylubiquinone oxidoreduction by purified Y. lipolytica complex I", "procedure": "as §1"}, "[2]": {"target": "T3, complex I in mitochondrial membranes (Mus musculus, UniProt P03888+Q91WD5+Q9DC70)", "T3 construct": "from tissue; host or cells: mouse (C57BL/6) heart mitochondria", "assay": "NADH oxidation in mouse mitochondrial membranes", "settings": "M. musculus membranes 20 μg ml−1; ± SE", "procedure": "as §1"}, "[3]": {"target": "T4, complex I in mitochondrial membranes (Yarrowia lipolytica, UniProt Q9B6E8+Q9UUT7+Q9UUU1)", "T4 sequence (Q9B6E8 1-341)": "T2 sequence (Q9B6E8 1-341)", "T4 sequence (Q9UUU1 22-466)": "T2 sequence (Q9UUU1 22-466)", "T4 sequence (Q9UUT7 28-210)": "T2 sequence (Q9UUT7 28-210)", "assay": "NADH oxidation in Y. lipolytica mitochondrial membranes", "procedure": "as §1"}, "complex I in bovine SMPs": {"target": "T5, complex I in bovine SMPs (Bos taurus, UniProt P03887+P17694+P42026)", "T5 construct": "Complex I from bovine heart were prepared; from tissue; host or cells: bovine heart mitochondria", "assay": "Reverse electron transport (succinate oxidation-driven NAD+ reduction) in bovine heart submitochondrial particles", "procedure": "as §2"}}, "data": [{"smiles": "CS(=O)(=O)C1CCN(c2cccc(Cn3cc(-c4nc(-c5ccc(OC(F)(F)F)cc5)no4)ccc3=O)c2)CC1", "note": "[IACS-2858, 1-(3-(4-(Methylsulfonyl)piperidin-1-yl)benzyl)-5-(3-(4-(trifluoromethoxy)phenyl)-1,2,4-oxadiazol-5-yl)pyridin-2(1H)-one]", "values": [{"measurement": "reduction of ubiquinone-1 in the presence of the inhibitor", "setting": "complex I", "value": "No activity was observed"}, {"measurement": "IC50", "setting": "mouse complex I", "value": 2.8, "unit": "nM"}, {"measurement": "IC50", "setting": "[1]", "value": "358 ± 37", "unit": "nM"}, {"measurement": "IC50", "setting": "[2]", "value": "1.4 ± 0.1", "unit": "nM"}, {"measurement": "IC50", "setting": "[3]", "value": "~7200", "unit": "nM"}, {"measurement": "IC50", "setting": "complex I in bovine SMPs; bovine SMPs, succinate oxidation-driven NAD+ reduction rate, ± SE", "value": "3.1 ± 0.1", "unit": "nM"}, {"measurement": "inhibition of RET favoured over FET", "setting": "complex I in bovine SMPs; bovine heart SMPs, RET versus FET", "value": "> 2", "unit": "fold"}]}]}
